Tests used:
Format in all cases: biochemical
Aβ 1-40 amyloid fibrils = assay: Modified Congo red-Aβ spectrophotometric assay: disaggregation of pre-formed Aβ 1-40 fibrils (3 days incubation); details: Aβ:compound weight ratio 2:1; fibrillized Aβ 1-40 incubated with compound 3 days at 37°C in TBS pH 7.0; Δ absorbance at 540 nm; triplicate
Procedure: In this study, a Congo red-Aβ spectrophotometric assay (Klunk et al., Anal. Biochem. 266:66-76, 1999) was modified to determine the effectiveness of polyhydroxylated aromatic compounds on the disaggregation of pre-formed Aβ 1-40 amyloid fibrils. For this assay, 1 mg of Aβ 1-40 (Bachem) was incubated for 4 days in distilled water at 37°C to spontaneously produce amyloid fibrils. 25pM of fibrillized Aβ 1-40 was then incubated in triplicate with various test compounds for 3 days at 37°C in Tris-buffered saline (TBS)(100 mM Tris; 50 mM NaCl; pH 7.0, with 0.02% sodium azide), at an Aβ:compound weight ratio of 2:1. Following incubation, 50µl of 360 µM Congo red (Sigma) in distilled water was then added to 250 µl of each incubation mixture, giving a final Aβ:Congo red molar ratio of 1:3. After 10 minutes, the absorbance at 405 nm (reference wavelength to account for the absorbance of Congo red alone at 540 nm) and 540 nm (sample absorbance where "sample" refers to Aβ alone, test compound alone, or Aβ plus test compound, all in the presence of Congo red) was determined using a Biorad Model 550 BLISA Plate Reader (Biorad, Hercules, CA, USA). The absorbance at wavelength 405 nm was automatically subtracted by the ELISA plate reader from the absorbance at wavelength 540 nm (difference is referred to as Δ absorbance)(see Klunk et al. cited above). Therefore, the Δ absorbance reading at 540 nm was proportional to the amount of aggregated Aβ left in solution (Klunk et al.).
For all experiments involving test compounds, the Δ absorbance reading at 540 nm of the test compound alone (in the absence of Aβ), was always subtracted from the corresponding Δ absorbance reading at 540 nm of the test compound in the presence of Aβ. Using this modification of the method of Klunk et al., the use of a greater final concentration of Congo red, i.e. 60µM instead of 14µM, in the presence of fibrillar Aβ gave an overall absorbance at 540 nm that was always below 1.0 Absorbance Unit (AU), and well within the linear absorbance range.
The following polyhydroxylated aromatic containing compounds were tested using the above described Congo red-Aβ spectrophotometric assay to determine their effectiveness on disaggregation of pre-formed Aβ 1-40 amyloid fibrils: 1) gallic acid, 2) ethyl gallate, 3) quinic acid, 4) gallamide trihydrate, 5) ellagic acid, 6) propyl gallate, and 7) pyrogallol.

Aβ 1-42 amyloid fibrils = assay: Thioflavin T fluorometry: disassembly/disruption of pre-formed Aβ 1-42 amyloid fibrils; details: overnight (~18 hours) at 37°C, pH 7.0, mean of triplicate ± standard deviation
Procedure: For the first study, 1 mg of Aβ 1-42 (Bachem Inc., Torrance, CA, USA) was dissolved in 1.0 ml of double distilled water (1 mg/ml solution). 25 µM of Aβ 1-42 was then incubated overnight (~18 hours) at 37°C, in the absence or presence of 100µg/ml of the following compounds: 1) EDTA (Sigma Chemical Company, St. Louis, MO, USA), 2) myricetin (Acros, Somerville, New Jersey, USA), 3) exifone (Acros) 4) pyrogallol (Sigma), 5) tannic acid (Acros), 6) pyrocatechol (Acros), 7) quercetin (Sigma), 8) ellagic acid (Acros), 9) 1,2,4-benzenetriol (Acros), 10) 5-hydroxydopamine (Acros), 11) gallamide hydrate (Acros), 12) gallic acid (Sigma), 13) ethyl gallate (Acros), 14) quinic acid (Acros), 15) propyl gallate (Sigma), and 16) phloroglucide (Acros), each in the presence of 150 mM Tris HCl, 10 mM NaCl (pH 7.0) with 0.02% sodium azide. In this study, the Aβ 1-42:compound weight ratio was 1:1.
For the second study, 1 mg of Aβ 1-42 (Bachem) was dissolved in 1.0 ml of double distilled water (1 mg/ml solution). 25 µM of Aβ 1-42 was then incubated overnight (~18 hours) at 37°C, in the absence or presence of 50µg/ml of the following compounds: 1) gallic acid, 2) ethyl gallate, 3) quinic acid, 4) gallamide trihydrate, 5) ellagic acid, 6) propyl gallate, and 7) pyrogallol, each in the presence of 150 mM Tris HCl, 10 mM NaCl (pH 7.0) with 0.02% sodium azide. In this study, the Aβ 1-42:compound weight ratio was 2:1.
Thioflavin T is known to bind to fibrillar amyloid proteins, and an increase in fluorescence correlates with an increase in amyloid fibril formation, whereas a decrease in fluorescence correlates with a decrease in amyloid fibrils due to disassembly and/or disruption. The Alzheimer's Aβ protein (1-42) when placed in solution, such as distilled water, tends to spontaneously form amyloid fibrils. Using this sensitive assay, any decreases or increases in fluorescence was previously shown to correlate with a decrease or increase in the amount of amyloid fibrils (see the documents cited above), allowing one to identify and quantitate the extent of potential inhibitors and/or enhancers of Alzheimer's Aβ 1-42 amyloid fibrils.
To assess the effects of each compound on potential disassembly/ disruption of preformed Aβ 1-42 fibrils, 50 µl of Aβ 1-42 with or without test compounds (described above) were added to 1.2 ml of 100µM Thioflavin T (Sigma) in 50mM NaH2PO4 (pH 6.0) for fluorometry readings. […] Fluorescence emission at 482 nm was measured on a Turner instrument-model 450 fluorometer at an excitation wavelength of 450 nm. For each determination, the fluorometer was calibrated by zeroing in the presence of the Thioflavin T reagent alone, and by setting the 50 ng/ml riboflavin (Sigma Chemical Co., St. Louis, MO) in the Thioflavin T reagent to 1800 fluorescence units. All fluorescence determinations were based on these references and any fluorescence given off by any of the compounds in the presence of the Thioflavin T reagent was always subtracted from all pertinent readings.
For all fibrillogenesis studies utilizing Thioflavin T fluorometry, as disclosed herein, comparisons of amyloid protein in the presence or absence of test compounds were based on paired Student's t tests with data shown as the mean of triplicate measurements ± standard deviation.

human amylin [1] = target: T1, human amylin (Homo sapiens, UniProt P10997); assay: Congo red staining of amylin fibrils on gelatin-coated slides (polarized light); details: result in words; amylin + compound after overnight incubation, compared with amylin alone
T1 construct: This amyloid protein involved consists of a 37 amino acid protein known as islet amyloid polypeptide or amylin; purchased Bachem
T1 sequence (P10997 34-70 limits assumed): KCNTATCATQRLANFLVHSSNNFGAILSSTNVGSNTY
Procedure: Following Thioflavin T fluorometry readings as described in Example 1, 5µl aliquots of amylin only, amylin + myricetin, amylin + exifone, and amylin + tannic acid were also taken, allowed to air dry overnight on gelatin-coated slides, and stained with Congo red as previously described (Castillo et al., Diabetes 47:612-620, 1998).

human amylin [2] = target: T1, human amylin; assay: Thioflavin T fluorometry: disassembly/disruption of islet amyloid (amylin) fibrils; details: 25 µM human amylin, 100µg/ml compound, amylin:compound weight ratio 1:1, overnight (~18 hours) at 37°C, pH 7.0; read-out: Fluorescence inhibition, %

Compound	Decrease in absorbance, % (Aβ 1-40 amyloid fibrils) [%]	Fluorescence inhibition, %, at the Aβ 1-42:compound w/w ratios given (Aβ 1-42 amyloid fibrils; Aβ 1-42:compound w/w ratio 2:1, 25 µM Aβ 1-42, 50µg/ml compound) [%]	Congo red staining (human amylin [1])	Fluorescence inhibition, %, at the Aβ 1-42:compound w/w ratios given (Aβ 1-42 amyloid fibrils; Aβ 1-42:compound w/w ratio 1:1, 25 µM Aβ 1-42, 100µg/ml compound) [%]	inhibition at 100 µg/mL (human amylin [2]) [%]
O=C(O)c1cc(O)c(O)c(O)c1 [Gallic acid, gallic acid]	52 ± 0.4	44 ± 1.7	–	–	–
O=C(OC[C@H]1O[C@@H](OC(=O)c2cc(O)c(O)c(OC(=O)c3cc(O)c(O)c(O)c3)c2)[C@H](OC(=O)c2cc(O)c(O)c(OC(=O)c3cc(O)c(O)c(O)c3)c2)[C@@H](OC(=O)c2cc(O)c(O)c(OC(=O)c3cc(O)c(O)c(O)c3)c2)[C@@H]1OC(=O)c1cc(O)c(O)c(OC(=O)c2cc(O)c(O)c(O)c2)c1)c1cc(O)c(O)c(OC(=O)c2cc(O)c(O)c(O)c2)c1 [Tannic acid, tannic acid]	–	–	marked decrease in Congo red staining	77 ± 1.3	83.8 ± 1.4

— EP1808169B1, “Polyhydroxylated aromatic compounds for the treatment of amyloidosis and alpha-synuclein fibril diseases” (priority 1999, dated 2001)
